Data: the supplement of paper PMC13380429

How the values were obtained:
[1] = tested on: Vero E6; assay: relative viability EC50 (midpoint between 100% and the lowest measured viability); higher = less toxic; conditions: 72 h
[2] = tested on: HepG2; assay: as above; conditions: 72 h
[3] = tested on: Calu-3; assay: as above; conditions: 72 h
[4] = tested on: U2OS; assay: as above; conditions: 72 h
[5] = tested on: A549-ACE2 infected with SARS-CoV-2; assay: cell count relative to DMSO; higher = less toxic; conditions: 24 h
[6] = tested on: A549-ACE2; assay: phospholipidosis EC50; higher = less potent phospholipidosis inducer
[7] = tested on: A549-ACE2 infected with SARS-CoV-2; assay: SARS-CoV-2 infection rate relative to DMSO; higher = more infection; conditions: 24 h
[8] = tested on: A549-ACE2 infected with SARS-CoV-2; assay: morphology score (similarity to uninfected cells); higher = more like uninfected cells; conditions: 24 h
[9] = tested on: Vero E6; assay: cell viability relative to DMSO; higher = less toxic; conditions: 72 h
[10] = tested on: HepG2; assay: as above; conditions: 72 h
[11] = tested on: Calu-3; assay: as above; conditions: 72 h
[12] = tested on: U2OS; assay: as above; conditions: 72 h
[13] = tested on: Caco-2; assay: as above; conditions: 72 h
[14] = tested on: Vero E6; assay: drug sensitivity score (DSS) for viability; higher = more toxic; extreme values may be limits of the assay; conditions: 72 h
[15] = tested on: HepG2; assay: as above; conditions: 72 h
[16] = tested on: Calu-3; assay: as above; conditions: 72 h
[17] = tested on: U2OS; assay: as above; conditions: 72 h
[18] = tested on: Caco-2; assay: as above; conditions: 72 h
[19] = tested on: A549-ACE2; assay: drug-induced phospholipidosis relative to tamoxifen; higher = more phospholipidosis
[20] = tested on: Caco-2; assay: relative viability EC50 (midpoint between 100% and the lowest measured viability); higher = less toxic; conditions: 72 h

CCN(CC)CCOc1ccc(/C(=C(\Cl)c2ccccc2)c2ccccc2)cc1 [clomifene]
Conditions | drug sensitivity score | relative viability EC50 [µM]
[1] | – | > 10
[2] | – | 2.75
[3] | – | 2.27
[4] | – | > 10
[14] | 0.7 | –
[15] | 4.6 | –
[16] | 6.5 | –
[17] | 0.5 | –
[18] | 2.5 | –

Conditions | SARS-CoV-2 infection rate [%] | cell count [%] | cell viability [%] | morphology score | phospholipidosis EC50 [µM]
[5], 0.1 µM | – | 101 | – | – | –
[5], 0.3 µM | – | 106 | – | – | –
[5], 1 µM | – | 113 | – | – | –
[5], 3 µM | – | 117 | – | – | –
[6], 24 h | – | – | – | – | 0.972
[6], 48 h | – | – | – | – | 3
[6], 72 h | – | – | – | – | 4.75
[7], 0.1 µM | 102 | – | – | – | –
[7], 0.3 µM | 84 | – | – | – | –
[7], 1 µM | 75 | – | – | – | –
[7], 3 µM | 31 | – | – | – | –
[8], 0.1 µM | – | – | – | -0.09 | –
[8], 0.3 µM | – | – | – | 0.35 | –
[8], 1 µM | – | – | – | 0.5 | –
[8], 3 µM | – | – | – | 0.8 | –
[9], 1 nM | – | – | 94.7 | – | –
[9], 10 nM | – | – | 95.5 | – | –
[9], 100 nM | – | – | 91.9 | – | –
[9], 1000 nM | – | – | 101 | – | –
[9], 10000 nM | – | – | 77.4 | – | –
[10], 1 nM | – | – | 90.5 | – | –
[10], 10 nM | – | – | 89.9 | – | –
[10], 100 nM | – | – | 105 | – | –
[10], 1000 nM | – | – | 96 | – | –
[10], 10000 nM | – | – | 26.5 | – | –
[11], 1 nM | – | – | 100 | – | –
[11], 10 nM | – | – | 101 | – | –
[11], 100 nM | – | – | 102 | – | –
[11], 1000 nM | – | – | 90.4 | – | –
[11], 10000 nM | – | – | 10.8 | – | –
[12], 1 nM | – | – | 96.1 | – | –
[12], 10 nM | – | – | 99.4 | – | –
[12], 100 nM | – | – | 96.3 | – | –
[12], 1000 nM | – | – | 103 | – | –
[12], 10000 nM | – | – | 79.3 | – | –
[13], 1 nM | – | – | 84.4 | – | –
[13], 10 nM | – | – | 100 | – | –
[13], 100 nM | – | – | 99.1 | – | –
[13], 1000 nM | – | – | 96.4 | – | –
[13], 10000 nM | – | – | 61.1 | – | –

drug-induced phospholipidosis [%], [19]
Conditions | 0.3 µM | 0.833333 µM | 3.33333 µM | 6.66667 µM | 10 µM | 30 µM
24 h | 9.43 | 34.4 | 86 | 104 | 115 | 47.6
48 h | 7.92 | 29.7 | 72.8 | 101 | 120 | –
72 h | 9.07 | 23.5 | 62.7 | 94.3 | 144 | –

CC(NCCC(c1ccccc1)c1ccccc1)c1ccccc1 (configuration not stated) [fendiline]
Conditions | drug sensitivity score | relative viability EC50 [µM]
[1] | – | > 10
[3] | – | 3.42
[4] | – | > 10
[14] | 0 | –
[15] | 2.2 | –
[16] | 2.6 | –
[17] | 0.3 | –
[18] | 1.7 | –

Conditions | SARS-CoV-2 infection rate [%] | cell count [%] | cell viability [%] | morphology score | phospholipidosis EC50 [µM]
[5], 0.3 µM | – | 98 | – | – | –
[5], 3 µM | – | 110 | – | – | –
[5], 10 µM | – | 119 | – | – | –
[5], 30 µM | – | 43 | – | – | –
[6], 24 h | – | – | – | – | 4.59
[6], 48 h | – | – | – | – | 6.53
[6], 72 h | – | – | – | – | 6.61
[7], 0.3 µM | 100 | – | – | – | –
[7], 3 µM | 47 | – | – | – | –
[7], 10 µM | 13 | – | – | – | –
[7], 30 µM | 45 | – | – | – | –
[8], 0.3 µM | – | – | – | -0.14 | –
[8], 3 µM | – | – | – | 0.77 | –
[8], 10 µM | – | – | – | 0.9 | –
[8], 30 µM | – | – | – | 0.08 | –
[9], 1 nM | – | – | 96.5 | – | –
[9], 10 nM | – | – | 98.6 | – | –
[9], 100 nM | – | – | 97.5 | – | –
[9], 1000 nM | – | – | 99.4 | – | –
[9], 10000 nM | – | – | 88.9 | – | –
[10], 1 nM | – | – | 110 | – | –
[10], 10 nM | – | – | 97.8 | – | –
[10], 100 nM | – | – | 102 | – | –
[10], 1000 nM | – | – | 94.2 | – | –
[10], 10000 nM | – | – | 70.1 | – | –
[11], 1 nM | – | – | 91.6 | – | –
[11], 10 nM | – | – | 96.3 | – | –
[11], 100 nM | – | – | 103 | – | –
[11], 1000 nM | – | – | 102 | – | –
[11], 10000 nM | – | – | 46.7 | – | –
[12], 1 nM | – | – | 99.2 | – | –
[12], 10 nM | – | – | 106 | – | –
[12], 100 nM | – | – | 93.1 | – | –
[12], 1000 nM | – | – | 99.6 | – | –
[12], 10000 nM | – | – | 84.2 | – | –
[13], 1 nM | – | – | 97.6 | – | –
[13], 10 nM | – | – | 99.8 | – | –
[13], 100 nM | – | – | 93.9 | – | –
[13], 1000 nM | – | – | 98.1 | – | –
[13], 10000 nM | – | – | 67.6 | – | –

drug-induced phospholipidosis [%], [19]
Conditions | 0.3 µM | 0.833333 µM | 3.33333 µM | 6.66667 µM | 10 µM | 30 µM
24 h | 3.14 | 1.17 | 27.5 | 62.8 | 85 | 85.8
48 h | 2.47 | 2.24 | 19.7 | 62.3 | 88.8 | –
72 h | 1.95 | -3.79 | 18.1 | 60.3 | 87.3 | –

OC1(c2ccc(Cl)c(C(F)(F)F)c2)CCN(CCCC(c2ccc(F)cc2)c2ccc(F)cc2)CC1 [penfluridol]
Conditions | drug sensitivity score | relative viability EC50 [µM]
[1] | – | 3
[2] | – | 3.34
[3] | – | 2.6
[4] | – | 2.6
[14] | 5.9 | –
[15] | 5.3 | –
[16] | 6.5 | –
[17] | 6.4 | –
[18] | 8.4 | –
[20] | – | 1.83

Conditions | SARS-CoV-2 infection rate [%] | cell count [%] | cell viability [%] | morphology score | phospholipidosis EC50 [µM]
[5], 0.1 µM | – | 101 | – | – | –
[5], 0.3 µM | – | 94 | – | – | –
[5], 1 µM | – | 113 | – | – | –
[5], 3 µM | – | 95 | – | – | –
[6], 24 h | – | – | – | – | 0.874
[7], 0.1 µM | 100 | – | – | – | –
[7], 0.3 µM | 102 | – | – | – | –
[7], 1 µM | 74 | – | – | – | –
[7], 3 µM | 8 | – | – | – | –
[8], 0.1 µM | – | – | – | 0.06 | –
[8], 0.3 µM | – | – | – | 0.27 | –
[8], 1 µM | – | – | – | 0.55 | –
[8], 3 µM | – | – | – | 0.86 | –
[9], 1 nM | – | – | 105 | – | –
[9], 10 nM | – | – | 96.3 | – | –
[9], 100 nM | – | – | 94.1 | – | –
[9], 1000 nM | – | – | 97.8 | – | –
[9], 10000 nM | – | – | 0.1 | – | –
[10], 1 nM | – | – | 106 | – | –
[10], 10 nM | – | – | 108 | – | –
[10], 100 nM | – | – | 104 | – | –
[10], 1000 nM | – | – | 103 | – | –
[10], 10000 nM | – | – | 0.2 | – | –
[11], 1 nM | – | – | 102 | – | –
[11], 10 nM | – | – | 95.2 | – | –
[11], 100 nM | – | – | 100 | – | –
[11], 1000 nM | – | – | 93.1 | – | –
[11], 10000 nM | – | – | 1 | – | –
[12], 1 nM | – | – | 99.4 | – | –
[12], 10 nM | – | – | 100 | – | –
[12], 100 nM | – | – | 104 | – | –
[12], 1000 nM | – | – | 93.2 | – | –
[12], 10000 nM | – | – | 3 | – | –
[13], 1 nM | – | – | 87.3 | – | –
[13], 10 nM | – | – | 74.2 | – | –
[13], 100 nM | – | – | 96.5 | – | –
[13], 1000 nM | – | – | 82.2 | – | –
[13], 10000 nM | – | – | 0.3 | – | –

drug-induced phospholipidosis [%], [19]
Conditions | 0.3 µM | 0.833333 µM | 3.33333 µM | 6.66667 µM
24 h | 12.8 | 30.2 | 64.4 | 48.3
48 h | 13.8 | 28.2 | 67.6 | –
72 h | 16.8 | 26.4 | 77.7 | –
